From the NIST ThermoML archive (doi:10.1021/acs.jced.8b00217)

Experiments:
[1] = refractive index (Na D-line) (dimensionless); conditions: 298.15 K; 101.3 kPa; Liquid; Standard Abbe refractometry
[2] = 298.15 K; 101.3 kPa; Liquid; Vibrating tube method
[3] = relative permittivity at various frequencies (dimensionless); conditions: 298.15 K; 101.3 kPa; Liquid; Frequency=0.01 MHz; Coaxial cylinder capacitor
[4] = refractive index (Na D-line) (dimensionless); xn = mol fraction of the nth substance listed; conditions: 298.15 K, 101.3 kPa, Liquid, Standard Abbe refractometry
[5] = relative permittivity at various frequencies (dimensionless); xn = mol fraction of the nth substance listed; conditions: 298.15 K, 101.3 kPa, Liquid, Frequency=0.01 MHz, Coaxial cylinder capacitor
[6] = xn = mol fraction of the nth substance listed; conditions: 298.15 K, 101.3 kPa, Liquid, Vibrating tube method

CCCCCCO [hexan-1-ol]
Conditions | mass density [kg/m3] | refractive index | relative permittivity
[1] | – | 1.4161 | –
[2] | 815.99 | – | –
[3] | – | – | 13.09

C1CCCCC1 [cyclohexane] + O=C1CCCC1
x2 = 0
Conditions | refractive index | relative permittivity
[4] | 1.4235 | –
[5] | – | 2.02

O=C1CCCC1 [cyclopentanone] + CCO
Conditions | mass density, [6] [kg/m3] | refractive index, [4] | relative permittivity, [5]
x1 = 0.1 | 811.02 | 1.3696 | 22.42
x1 = 0.2 | 833.48 | 1.3793 | 20.69
x1 = 0.3 | 853.69 | 1.3884 | 19.16
x1 = 0.4 | 871.79 | 1.3968 | 17.78
x1 = 0.5 | 888.17 | 1.4046 | 16.6
x1 = 0.6 | 902.91 | 1.4117 | 15.59
x1 = 0.7 | 915.99 | 1.4182 | 14.77
x1 = 0.8 | 927.18 | 1.4242 | 14.16
x1 = 0.9 | 936.58 | 1.4296 | 13.75
x1 = 1 | 944.31 | 1.4347 | 13.52

O=C1CCCC1 [cyclopentanone] + C1CCCCC1
Conditions | refractive index, [4] | relative permittivity, [5]
x1 = 0.03 | 1.4235 | 2.25
x1 = 0.05 | 1.4235 | 2.39
x1 = 0.1 | 1.4236 | 2.78
x1 = 0.15 | 1.4237 | 3.19
x1 = 0.2 | 1.4239 | 3.61
x1 = 0.3 | 1.4244 | 4.51
x1 = 0.4 | 1.4252 | 5.51
x1 = 0.5 | 1.4262 | 6.6
x1 = 0.6 | 1.4274 | 7.78
x1 = 0.7 | 1.4289 | 9.06
x1 = 0.8 | 1.4306 | 10.45
x1 = 0.9 | 1.4325 | 11.94
x1 = 1 | 1.4347 | 13.52

CCCCCCO [hexan-1-ol] + O=C1CCCC1
x2 = 0
Conditions | mass density [kg/m3] | refractive index | relative permittivity
[4] | – | 1.4161 | –
[5] | – | – | 13.09
[6] | 815.99 | – | –

O=C1CCCC1 [cyclopentanone]
Conditions | mass density [kg/m3] | refractive index | relative permittivity
[1] | – | 1.4347 | –
[2] | 944.31 | – | –
[3] | – | – | 13.52

CCO [ethanol] + O=C1CCCC1
x2 = 0
Conditions | mass density [kg/m3] | refractive index | relative permittivity
[4] | – | 1.3594 | –
[5] | – | – | 24.37
[6] | 785.26 | – | –

CCCCO [butan-1-ol]
Conditions | mass density [kg/m3] | refractive index | relative permittivity
[1] | – | 1.3971 | –
[2] | 805.92 | – | –
[3] | – | – | 17.49

O=C1CCCC1 [cyclopentanone] + CCCCCCCCCCO
Conditions | mass density, [6] [kg/m3] | refractive index, [4] | relative permittivity, [5]
x1 = 0.1 | 829.38 | 1.4345 | 7.75
x1 = 0.2 | 833.22 | 1.4339 | 7.84
x1 = 0.3 | 839.24 | 1.4335 | 8.07
x1 = 0.4 | 847.47 | 1.4333 | 8.43
x1 = 0.5 | 857.91 | 1.4332 | 8.93
x1 = 0.6 | 870.34 | 1.4332 | 9.56
x1 = 0.7 | 884.81 | 1.4333 | 10.34
x1 = 0.8 | 901.52 | 1.4336 | 11.27
x1 = 0.9 | 921.01 | 1.4341 | 12.31
x1 = 1 | 944.31 | 1.4347 | 13.52

CCCCO [butan-1-ol] + O=C1CCCC1
x2 = 0
Conditions | mass density [kg/m3] | refractive index | relative permittivity
[4] | – | 1.3971 | –
[5] | – | – | 17.49
[6] | 805.92 | – | –

O=C1CCCC1 [cyclopentanone] + CCCCCCO
Conditions | mass density, [6] [kg/m3] | refractive index, [4] | relative permittivity, [5]
x1 = 0.1 | 823.87 | 1.4175 | 12.44
x1 = 0.2 | 832.61 | 1.4189 | 12
x1 = 0.3 | 842.44 | 1.4204 | 11.68
x1 = 0.4 | 853.65 | 1.4221 | 11.51
x1 = 0.5 | 866.02 | 1.4239 | 11.48
x1 = 0.6 | 879.48 | 1.4258 | 11.59
x1 = 0.7 | 894.17 | 1.4279 | 11.87
x1 = 0.8 | 909.92 | 1.4301 | 12.27
x1 = 0.9 | 926.64 | 1.4324 | 12.83
x1 = 1 | 944.31 | 1.4347 | 13.52

CCCCCCCCCCO [decan-1-ol] + O=C1CCCC1
x2 = 0
Conditions | mass density [kg/m3] | refractive index | relative permittivity
[4] | – | 1.4352 | –
[5] | – | – | 7.74
[6] | 826.71 | – | –

CCCCCCCCO [octan-1-ol]
Conditions | mass density [kg/m3] | refractive index | relative permittivity
[1] | – | 1.4276 | –
[2] | 821.98 | – | –
[3] | – | – | 9.85

CCCCCCCCO [octan-1-ol] + O=C1CCCC1
x2 = 0
Conditions | mass density [kg/m3] | refractive index | relative permittivity
[4] | – | 1.4276 | –
[5] | – | – | 9.85
[6] | 821.98 | – | –

CCO [ethanol]
Conditions | mass density [kg/m3] | refractive index | relative permittivity
[1] | – | 1.3594 | –
[2] | 785.26 | – | –
[3] | – | – | 24.37

C1CCCCC1 [cyclohexane]
Conditions | mass density [kg/m3] | refractive index | relative permittivity
[1] | – | 1.4235 | –
[2] | 773.89 | – | –
[3] | – | – | 2.02

CCCCCCCCCCO [decan-1-ol]
Conditions | mass density [kg/m3] | refractive index | relative permittivity
[1] | – | 1.4352 | –
[2] | 826.71 | – | –
[3] | – | – | 7.74

O=C1CCCC1 [cyclopentanone] + CCCCO
Conditions | mass density, [6] [kg/m3] | refractive index, [4] | relative permittivity, [5]
x1 = 0.1 | 820.75 | 1.4015 | 16.31
x1 = 0.2 | 835.31 | 1.4057 | 15.37
x1 = 0.3 | 849.88 | 1.4098 | 14.58
x1 = 0.4 | 864.47 | 1.4137 | 13.97
x1 = 0.5 | 878.88 | 1.4175 | 13.5
x1 = 0.6 | 893.05 | 1.4212 | 13.18
x1 = 0.7 | 906.81 | 1.4248 | 13.03
x1 = 0.8 | 920.01 | 1.4282 | 13.04
x1 = 0.9 | 932.67 | 1.4315 | 13.19
x1 = 1 | 944.31 | 1.4347 | 13.52

O=C1CCCC1 [cyclopentanone] + CCCCCCCCO
Conditions | mass density, [6] [kg/m3] | refractive index, [4] | relative permittivity, [5]
x1 = 0.1 | 827.28 | 1.4276 | 9.63
x1 = 0.2 | 833.41 | 1.4278 | 9.51
x1 = 0.3 | 841.25 | 1.4282 | 9.5
x1 = 0.4 | 850.89 | 1.4287 | 9.65
x1 = 0.5 | 862.2 | 1.4294 | 9.94
x1 = 0.6 | 874.88 | 1.4302 | 10.37
x1 = 0.7 | 889.18 | 1.4311 | 10.97
x1 = 0.8 | 905.27 | 1.4321 | 11.69
x1 = 0.9 | 923.62 | 1.4333 | 12.55
x1 = 1 | 944.31 | 1.4347 | 13.52
